Data taken from patent US9994587B2, “HIV protease inhibitors” (priority 2014, dated 2018).

Tests used:
wildtype HIV-1 protease = target: T1, wildtype HIV-1 protease (Human immunodeficiency virus type 1 group M subtype B, UniProt P04585); test: Assay for inhibition of microbial expressed HIV protease (Pepcleav); assay type: biochemical; conditions: wild type HIV-1 protease 20 pM, peptide substrate 400 micromolar, pH 5.5; mean of at least two independent experiments
T1 construct: preincubated with the HIV-1 protease (wild type) enzyme in assay buffer; made in house; host or cells: Escherichia coli
Procedure, shortened: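 E. coli-expressed enzyme preincubated with inhibitor 30 min at room temperature in 50 mM sodium acetate pH 5.5, 100 mM NaCl, 0.1% BSA, then 400 micromolar peptide substrate added with 20 picomolar protease (final), 1 h at 30° C. Product quantified by LC-MS/MS peak area after formic acid/indinavir quench.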

HIV-1 (NL4-3 strain) = test: Viral Kinetics GFP Reporter (ViKinG) assay; assay type: cell-based; conditions: Human immunodeficiency virus 1, NL43; 50% NHS; MT4-GFP cells infected with HIV-1 NL4-3; mean of at least two independent experiments
From the text: Viral Kinetics GFP Reporter (ViKinG) Assay
The ViKinG assay is an in vitro kinetic assay that employs the MT4-gag-GFP reporter cell line (Wang et al., “Assessment of the susceptibility of mutant HIV-1 to antiviral agents.” J Virological Methods 165:230-37 (2010)) to quantify the number of new cells infected in each round of replication. The purpose of the ViKinG assay is to identify agents that inhibit HIV progression. Briefly, HIV infection results in tat transactivation of the stably expressed HIV LTR promoter to drive gagGFP expression. Thus, an increase in the number of GFP-MT4 cells results following HIV infection.
MT4-GFP cells (250,000 cells/ml) were bulk-infected with HIV-1 (NL4-3 strain) at low multiplicity of infection (MOI) in RPMI+10% FBS for 24 hours. Cells were then washed once in RPMI+10% FBS and resuspended RPMI+10% or 50% normal human serum (NHS). Test compounds were serial-diluted in DMSO on an ECHO® liquid handling platform (Labcyte Corp., Sunnyvale, Calif.), along with a triple drug control (integrase, protease and NNRTI compounds). The infected MT4-GFP cells were added to a 384-well poly-D-lysine coated black plate with clear bottom in which the diluted test compounds were placed. The cells were seeded at 8,000 cells per well and the final DMSO concentration was 0.4%. The infected cells (Green GFP cells) were quantified at both 24 and 48 hours post incubation using Acumen® eX3 (TTP Labtech Ltd., Hertfordshire, United Kingdom). Viral reproductive ratio (R0) was determined using the number of infected cells at 48 hours divided by the number of infected cells at 24 hours. Percent viral growth inhibition was calculated by [1−(R−Rtripledrug)/(RDMSO−Rtripledrug)]*100. Compound potency IP or IC50 was determined by a 4-parameter dose response curve analysis.

Row | Structure (SMILES) | IC50 (wildtype HIV-1 protease) | IC50 (HIV-1 (NL4-3 strain))
1 | N[C@H](C(=O)Nc1cncc(F)c1CC[C@@H]1CNC[C@@H](CSc2nnc(-c3ccncc3)o2)O1)C(c1ccc(F)cc1)c1ccc(F)cc1 [Example 103, (S)-2-amino-N-(5-fluoro-4-(2-((2R,6S)-6-(((5-(pyridin-4-yl)-1,3,4-oxadiazol-2-yl)thio)methyl)morpholin-2-yl)ethyl)pyridin-3-yl)-3,3-bis(4-fluorophenyl)propanamide] | 0.49 nM | 37 nM
2 | N[C@H](C(=O)Nc1cccc(F)c1CC[C@@H]1CNC[C@@H](COC(=O)NCC(F)(F)F)O1)C(c1ccc(F)cc1)c1ccc(F)cc1 [Example 99, 4-fluoro-β-(4-fluorophenyl)-N-(3-fluoro-2-{2-[(2R,6S)-6-({[(2,2,2-trifluoroethyl)carbamoyl]oxy}methyl)morpholin-2-yl]ethyl}phenyl)-L-phenylalaninamide] | 15 nM | 59 nM
3 | N[C@H](C(=O)Nc1cccc(F)c1CC[C@@H]1CNC[C@@H](CSc2nnc(-c3ccncc3)o2)O1)C(c1ccc(F)cc1)c1ccc(F)cc1 [Example 91, 4-fluoro-β-(4-fluorophenyl)-N-(3-fluoro-2-{2-[(2R,6S)-6-{[(5-pyridin-4-yl-1,3,4-oxadiazol-2-yl)sulfanyl]methyl}morpholin-2-yl]ethyl}phenyl)-L-phenylalaninamide] | 0.25 nM | 20 nM
4 | CS(=O)(=O)N1CCC2(CC1)CNC[C@@H](CCc1c(F)cccc1NC(=O)[C@@H](N)[C@@H](c1ccc(Cl)cc1)c1cc(F)cc(F)c1)O2 [Example 93, (βS)-4-chloro-β-(3,5-difluorophenyl)-N-(3-fluoro-2-{2-[(2R)-9-(methylsulfonyl)-1-oxa-4,9-diazaspiro[5.5]undec-2-yl]ethyl}phenyl)-L-phenylalaninamide] | 11 nM | 46 nM
5 | COC(=O)N[C@H](C(=O)Nc1cncc(F)c1CC[C@@H]1CNCC2(CCOCC2)O1)[C@@H](c1ccc(Cl)cc1)c1cc(F)cc(F)c1 [Example 98, methyl {(1S,2S)-2-(4-chlorophenyl)-2-(3,5-difluorophenyl)-1-[(4-{2-[(2R)-1,9-dioxa-4-azaspiro[5.5]undec-2-yl]ethyl}-5-fluoropyridin-3-yl)carbamoyl]ethyl}carbamate] | 29 nM | 88 nM
6 | COC(=O)N[C@H](C(=O)Nc1cccc(F)c1CC[C@@H]1CNCC2(CCN(S(C)(=O)=O)CC2)O1)[C@@H](c1ccc(Cl)cc1)c1cc(F)cc(F)c1 [Example 94, methyl {(1 S,2S)-2-(4-chlorophenyl)-2-(3,5-difluorophenyl)-1-[(3-fluoro-2-{2-[(2R)-9-(methylsulfonyl)-1-oxa-4,9-diazaspiro[5.5]undec-2-yl]ethyl}phenyl)carbamoyl]ethyl}carbamate] | 11 nM | 42 nM
7 | COC(=O)N[C@H](C(=O)Nc1cncc(F)c1CC[C@@H]1CNCC2(CCN(C(C)=O)CC2)O1)[C@@H](c1ccc(Cl)cc1)c1cc(F)cc(F)c1 [Example 153, methyl{(1S)-2-[(4-{2-[(2R)-9-acetyl-1-oxa-4,9-diazaspiro[5.5]undec-2-yl]ethyl}-5-fluoropyridin-3-yl)amino]-1-[(S)-(4-chlorophenyl)(3,5-difluorophenyl)methyl]-2-oxoethyl}carbamate] |  | 310 nM
8 | N[C@H](C(=O)Nc1cncc(F)c1CC[C@@H]1CNCC2(CCOCC2)O1)C(c1ccc(F)cc1)c1ccc(F)cc1 [Example 101, N-(4-{2-[(2R)-1,9-dioxa-4-azaspiro[5.5]undec-2-yl]ethyl}-5-fluoropyridin-3-yl)-4-fluoro-β-(4-fluorophenyl)-L-phenylalaninamide] |  | 110 nM
9 | CS(=O)(=O)N1CCC2(CC1)CNC[C@@H](CCc1c(F)cncc1NC(=O)[C@@H](N)[C@@H](c1ccc(Cl)cc1)c1cccc(OC(F)(F)F)c1)O2 [Example 154, (βS)-β-(4-chlorophenyl)-N-(5-fluoro-4-{2-[(2R)-9-(methylsulfonyl)-1-oxa-4,9-diazaspiro[5.5]undec-2-yl]ethyl}pyridin-3-yl)-3-(trifluoromethoxy)-L-phenylalaninamide] |  | 300 nM
